# According to patent US20240228555A9, “ANTIMICROBIAL PEPTIDOMIMETICS” (Basilea Pharmaceutica International AG, Allschwil, priority 2020, published 2024):
# Where a SMILES comes first, the peptide text is derived from it.
# Assays:
# [1] = tested on: human red blood cells (hRBC); type: cell-based; details: red cells of human, 1 h, 0.2 g/L
# Outline: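 PBS-washed human erythrocytes (20% v/v) were incubated with compounds at 200 μg/mL for 1 h at 37° C with shaking. Supernatant OD540 was read after 8-fold dilution; hemolysis % = OD540 peptide / OD540 of the 100% lysis control (2.5% Triton X-100 in H2O) ×100, with PBS as 0%.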
# [2] = tested on: Escherichia coli ATCC 25922; details: ATCC 25922
# Outline: (§1)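 Activity is measured against peptides serially diluted two-fold in water with 0.002% final Polysorbate 80. The cells are in cation-adjusted MHII broth at roughly 5×10^5 CFU/mL, prepared from a 0.5 McFarland suspension in 0.85% NaCl.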
# [3] = tested on: Escherichia coli MCR-1 Af 45; details: Mueller-Hinton broth II, no visible growth after 18-20 hours at 35° C.
# Outline: as §1
# [4] = tested on: Klebsiella pneumoniae SSI3010; details: SSI3010
# Outline: as §1
Structure (SMILES),Hemolysis at 0.2 g/L [1] [%],Escherichia coli ATCC 25922 MIC [2] [µg/mL],Escherichia coli MCR-1 Af 45 MIC [3] [µg/mL],Klebsiella pneumoniae SSI3010 MIC [4] [µg/mL]
"CC[C@H](C)[C@H](NC(=O)[C@@H](NC(=O)[C@@H]1C[C@@H](O)CN1C(=O)[C@@H](N)C(C)(C)C)[C@@H](C)CC)C(=O)N[C@@H](Cc1ccc(O)cc1)C(=O)N[C@@H]1C(=O)N[C@@H](CC(N)=O)C(=O)N[C@@H](CCCNC(=N)N)C(=O)N[C@@H](CCN)C(=O)N[C@@H]([C@@H](C)O)C(=O)N[C@H](CCN)C(=O)N[C@@H](CCCCN)C(=O)N[C@H](C(=O)N[C@@H](CCN)C(=O)N[C@@H](CCCNC(=N)N)C(=O)N[C@@H](Cc2ccc(O)cc2)C(=O)O)CSSC1(C)C [Example 114, tBuGly-Hyp-Ile-Ile-Tyr-Pen-Asn-Arg-Dab-Thr-^DDab-Lys-Cys-Dab-Arg-Tyr] (HELM PEPTIDE1{[CC(C)(C)[C@H](N)C(=O)[*:2]].[Hyp].I.I.Y.[Pen].N.R.[Dab].T.[NCC[C@@H](N[*:1])C(=O)[*:2]].K.C.[Dab].R.Y}$PEPTIDE1,PEPTIDE1,6:R3-13:R3$$$V2.0)",<1,0.125,0.125,0.5
"CC[C@H](C)[C@@H]1NC(=O)[C@@H](NC(=O)[C@H](Cc2ccc(O)cc2)NC(=O)[C@@H](NC(=O)[C@@H](NC(=O)[C@@H]2C[C@@H](O)CN2C(=O)[C@@H](N)C(C)C)[C@@H](C)CC)[C@@H](C)O)C(C)(C)SSC[C@@H](C(=O)N[C@@H](CCN)C(=O)N[C@@H](CO)C(=O)N[C@@H](Cc2ccc(O)cc2)C(=O)O)NC(=O)[C@H](CCCCN)NC(=O)[C@@H](CCN)NC(=O)[C@H]([C@@H](C)O)NC(=O)[C@H](CCN)NC(=O)[C@H](CCCNC(=N)N)NC1=O [Example 99, Val-Hyp-Ile-Thr-Tyr-Pen-Ile-Arg-Dab-Thr-^DDab-Lys-Cys-Dab-Ser-Tyr] (HELM PEPTIDE1{V.[Hyp].I.T.Y.[Pen].I.R.[Dab].T.[NCC[C@@H](N[*:1])C(=O)[*:2]].K.C.[Dab].S.Y}$PEPTIDE1,PEPTIDE1,6:R3-13:R3$$$V2.0)",<1,0.125,0.125,0.25
"CC[C@H](C)[C@H](NC(=O)[C@@H]1C[C@@H](O)CN1C(=O)[C@@H](N)C(C)C)C(=O)N[C@H](C(=O)N[C@@H](Cc1ccc(O)cc1)C(=O)N[C@@H]1C(=O)N[C@@H](CC(N)=O)C(=O)N[C@@H](CCCNC(=N)N)C(=O)N[C@@H](CCN)C(=O)N[C@@H](CO)C(=O)N[C@H](CCN)C(=O)N[C@@H](CCCCN)C(=O)N[C@H](C(=O)N[C@@H](CCN)C(=O)N[C@@H](CCCN)C(=O)N[C@@H](Cc2ccc(O)cc2)C(=O)O)CSSC1(C)C)[C@@H](C)O [Example 94, Val-Hyp-Ile-Thr-Tyr-Pen-Asn-Arg-Dab-Ser-^DDab-Lys-Cys-Dab-Orn-Tyr] (HELM PEPTIDE1{V.[Hyp].I.T.Y.[Pen].N.R.[Dab].S.[NCC[C@@H](N[*:1])C(=O)[*:2]].K.C.[Dab].[Orn].Y}$PEPTIDE1,PEPTIDE1,6:R3-13:R3$$$V2.0)",<1,0.0625,0.0625,0.25
"CC[C@H](C)[C@H](NC(=O)[C@@H]1CC(F)(F)CN1C(=O)[C@@H](N)C(C)C)C(=O)N[C@H](C(=O)N[C@@H](Cc1ccc(O)cc1)C(=O)N[C@@H]1C(=O)N[C@@H](CC(N)=O)C(=O)N[C@@H](CCCNC(=N)N)C(=O)N[C@@H](CCN)C(=O)N[C@@H]([C@@H](C)O)C(=O)N[C@H](CCN)C(=O)N[C@@H](CCCCN)C(=O)N[C@H](C(=O)N[C@@H](CCN)C(=O)N[C@@H](CCCNC(=N)N)C(=O)N[C@@H](Cc2ccc(O)cc2)C(=O)O)CSSC1(C)C)[C@@H](C)O [Example 127, Val-Pro(4,4F2)-Ile-Thr-Tyr-Pen-Asn-Arg-Dab-Thr-^DDab-Lys-Cys-Dab-Arg-Tyr] (HELM PEPTIDE1{V.[O=C([C@@H]1CC(F)(F)CN1[*:1])[*:2]].I.T.Y.[Pen].N.R.[Dab].T.[NCC[C@@H](N[*:1])C(=O)[*:2]].K.C.[Dab].R.Y}$PEPTIDE1,PEPTIDE1,6:R3-13:R3$$$V2.0)",<1,0.25,0.125,0.5
"CC[C@H](C)[C@H](NC(=O)[C@@H]1C[C@@H](O)CN1C(=O)[C@@H](N)C(C)C)C(=O)N[C@H](C(=O)N[C@@H](Cc1ccc(O)cc1)C(=O)N[C@@H]1C(=O)N[C@@H](CC(N)=O)C(=O)N[C@@H](CCCNC(=N)N)C(=O)N[C@@H](CCN)C(=O)N[C@@H]([C@@H](C)O)C(=O)N[C@H](CCN)C(=O)N[C@@H](CCCCN)C(=O)N[C@H](C(=O)N[C@@H](CCN)C(=O)N[C@@H](CCCNC(=N)N)C(=O)N[C@@H](Cc2ccc(O)cc2)C(=O)O)CSSC1(C)C)C(C)(C)O [Example 126, Val-Hyp-Ile-Val(3OH)-Tyr-Pen-Asn-Arg-Dab-Thr-^DDab-Lys-Cys-Dab-Arg-Tyr] (HELM PEPTIDE1{V.[Hyp].I.[CC(C)(O)[C@H](N[*:1])C(=O)[*:2]].Y.[Pen].N.R.[Dab].T.[NCC[C@@H](N[*:1])C(=O)[*:2]].K.C.[Dab].R.Y}$PEPTIDE1,PEPTIDE1,6:R3-13:R3$$$V2.0)",<1,0.0625,0.0625,0.125
"CC[C@H](C)[C@H](NC(=O)[C@@H]1CCCN1C(=O)[C@@H](N)C(C)C)C(=O)N[C@H](C(=O)N[C@@H](Cc1ccc(O)cc1)C(=O)N[C@@H]1C(=O)N[C@@H](CC(N)=O)C(=O)N[C@@H](CCCNC(=N)N)C(=O)N[C@@H](CCN)C(=O)N[C@@H]([C@@H](C)O)C(=O)N[C@H](CCN)C(=O)N[C@@H](CCCCN)C(=O)N[C@H](C(=O)N[C@@H](CCN)C(=O)N[C@@H](CCCNC(=N)N)C(=O)N[C@@H](Cc2ccc(O)cc2)C(=O)O)CSSC1(C)C)[C@@H](C)O [Example 80, Val-Pro-Ile-Thr-Tyr-Pen-Asn-Arg-Dab-Thr-^DDab-Lys-Cys-Dab-Arg-Tyr] (HELM PEPTIDE1{V.P.I.T.Y.[Pen].N.R.[Dab].T.[NCC[C@@H](N[*:1])C(=O)[*:2]].K.C.[Dab].R.Y}$PEPTIDE1,PEPTIDE1,6:R3-13:R3$$$V2.0)",<1,0.125,0.0625,0.25
"CC[C@H](C)[C@@H]1NC(=O)[C@@H](NC(=O)[C@H](Cc2ccc(O)cc2)NC(=O)[C@@H](NC(=O)[C@@H](NC(=O)[C@@H]2C[C@@H](O)CN2C(=O)[C@@H](N)C(C)C)[C@@H](C)CC)[C@@H](C)O)C(C)(C)SSC[C@@H](C(=O)N[C@@H](CO)C(=O)N[C@@H](CCCN)C(=O)N[C@@H](Cc2ccc(O)cc2)C(=O)O)NC(=O)[C@H](CCCCN)NC(=O)[C@@H](CCN)NC(=O)[C@H]([C@@H](C)O)NC(=O)[C@H](CCN)NC(=O)[C@H](CCCNC(=N)N)NC1=O [Example 92, Val-Hyp-Ile-Thr-Tyr-Pen-Ile-Arg-Dab-Thr-^DDab-Lys-Cys-Ser-Orn-Tyr] (HELM PEPTIDE1{V.[Hyp].I.T.Y.[Pen].I.R.[Dab].T.[NCC[C@@H](N[*:1])C(=O)[*:2]].K.C.S.[Orn].Y}$PEPTIDE1,PEPTIDE1,6:R3-13:R3$$$V2.0)",<1,0.25,0.125,0.5
